Assay [1] deals with HCT116 (MTAP del) cell line. Nature of the assay: Cell proliferation inhibition in MTAP-deficient cancer cells, WST-1 assay. Particulars: Homo sapiens, HCT-116, 120 hours of drug treatment, maximum concentration 10 µM, read-out: HCT116 MTAP^-/- (IC50, cell proliferation inhibited by 50%). Format: cell-based. The procedure: (§1) The HCT116 (MTAP del) cell line, which is a colorectal cancer cell line with deletion of MTAP gene, was treated with a compound according to an embodiment of the present application as a MAT2A inhibitor, and after culturing for 120 hours, the change in the number of cells was measured with a WST-1 assay reagent. The WST-1 assay is an assay that measures the number of cells by measuring the generation of a chromogenic substance called formazan from tetrazolium salts by intracellular mitochondrial dehydrogenase. In addition, as a control group, a wild-type colorectal cancer HCT116 (MTAP WT) cell line containing the MTAP gene was used to perform the experiment in the same manner as the experimental group.
(§2) Cell lines and reagents: HCT116 (MTAP WT (catalog number HD PAR-034), MTAP del (catalog number HD R02-033)) cell lines were purchased from Horizon Discovery (USA), and RPMI1640 medium (catalog number 22400-093), FBS (Fetal Bovine serum, catalog number 16000044), and Penicillin/Streptomycin (catalog number 15140-122) were purchased from GIBCO (USA). WST-1 (catalog number EZ-BULK150) was purchased from Dogen (Korea).
(§3) Experimental procedure: HCT116 (MTAP WT, MTAP del) cell lines were dispensed into a 96-well plate at a concentration of 1,000 cells/well in RPMI1640 culture medium containing 10% FBS and 1% Penicillin/Streptomycin, and allowed to attach for 24 hours. When the cells were attached to the plate, the drug was diluted 4-fold from a maximum concentration of 10 µM and treated on the cells. After 120 hours of drug treatment, 20 µL of WST-1 solution was treated for 2 hours, and absorbance at 450 nm was measured using SpectraMax M4 (Molecular Devices). Data analysis was calculated by taking the DMSO control group value as 100%. For the IC50 value, the concentration at which cell proliferation is inhibited by 50% was calculated through interpolation using a 4-parameter fit of the dose-response curve using the GraphPad Prism 8.4.3 program. The cancer cell proliferation inhibitory ability and selectivity in MTAP-deficient cancer cells of the compounds according to an embodiment of the present application are described in Table 3 (+++: 1 to 100 nM, ++: more than 100 to 1,000 nM, +: more than 1 to 10 µM, -: more than 10 µM).

For the next assay, the target named is T1, MAT2A (Homo sapiens, UniProt P31153).
T1 construct: purchased BPS Bioscience (USA) 71401
T1 sequence (P31153 whole entry): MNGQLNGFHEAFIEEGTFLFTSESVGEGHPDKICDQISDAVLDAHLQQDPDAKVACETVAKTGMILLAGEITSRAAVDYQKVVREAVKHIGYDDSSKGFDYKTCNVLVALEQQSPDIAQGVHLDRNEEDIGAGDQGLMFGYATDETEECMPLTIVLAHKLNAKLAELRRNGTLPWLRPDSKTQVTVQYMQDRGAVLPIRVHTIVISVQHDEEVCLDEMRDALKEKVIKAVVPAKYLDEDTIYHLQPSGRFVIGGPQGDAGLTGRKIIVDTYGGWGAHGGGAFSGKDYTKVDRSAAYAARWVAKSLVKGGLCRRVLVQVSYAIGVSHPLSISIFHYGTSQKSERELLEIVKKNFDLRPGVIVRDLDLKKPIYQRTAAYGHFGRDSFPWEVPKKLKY
Nature of the assay: MAT2A inhibitory activity, colorimetric phosphate detection (PiColorLock) enzyme assay. Format: biochemical. Particulars: Test Condition 1 or 2 (not stated which per compound); absorbance at 630 nm. In outline: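 Compound preincubated 30 min at room temperature with enzyme, then reacted 1 h with ATP and Met; phosphate read colorimetrically at 630 nm. Condition 1: top 50 µM, 12 ng/µL enzyme, 100 µM ATP, 80 µM Met. Condition 2: top 1 µM, 4 ng/µL enzyme, 300 µM ATP, 150 µM Met. Tris pH 8.0 buffer; IC50 by 4-parameter fit.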

Assay [2] has as its system HCT116 (MTAP WT) cell line. Nature of the assay: Cell proliferation inhibition in wild-type control cells, WST-1 assay. Format: cell-based. Particulars: Homo sapiens, HCT-116, 120 hours of drug treatment, maximum concentration 10 µM, read-out: HCT116 WT (IC50, cell proliferation inhibited by 50%). The procedure: as §1, §2, §3
For orientation: Tetrazolium assays rely on reduction of a dye to a coloured formazan, in cell work by metabolically active cells.

We go through 23 compounds from EP4759814A1, “TRICYCLIC COMPOUND AND USE THEREOF AS MAT2A INHIBITOR” (SK Biopharmaceuticals Co., Ltd., priority 2023, dated 2025).

Consider `O=c1c2nccn2c2cc(Cl)c(Br)cc2n1-c1cccc2ncsc12` [Example 108, 5-(benzo[d]thiazol-7-yl)-7-bromo-8-chloroimidazo[1,2-a]quinoxalin-4(5H)-one], for which the IC50 in assay [1] lay within 100 to 1000 nM; on MAT2A, 1 to 100 nM; in assay [2], 1000 to 10000 nM.

As to `Cc1cc2c(cc1Br)n(-c1cccnc1C)c(=O)c1nccn12` [Example 78, 7-bromo-8-methyl-5-(2-methylpyridin-3-yl)imidazo[1,2-a]quinoxalin-4(5H)-one], the IC50 in assay [1] was 1 to 100 nM; against MAT2A it was 1 to 100 nM; in assay [2] it was over 10000 nM.

Take `Cc1cccc(-n2c(=O)c3nccn3c3ccc(Cl)cc32)c1C` [Example 4, 7-chloro-5-(2,3-dimethylphenyl)imidazo[1,2-a]quinoxalin-4(5H)-one]: the IC50 is 100 to 1000 nM in assay [1], 100 to 1000 nM on MAT2A and over 10000 nM in assay [2].

For the compound `Cc1ccc(F)cc1-n1c(=O)c2nccn2c2ccc(Cl)cc21` [Example 9, 7-chloro-5-(5-fluoro-2-methylphenyl)imidazo[1,2-a]quinoxalin-4(5H)-one], the IC50 (in assay [1]; at MAT2A; in assay [2]) was over 10000 nM throughout.

Turning to `Cc1c(F)cccc1-n1c(=O)c2nccn2c2ccc(C#N)cc21` [Example 27, 5-(3-fluoro-2-methylphenyl)-4-oxo-4,5-dihydroimidazo[1,2-a]quinoxalin-7-carbonitrile], the IC50 was 100 to 1000 nM in assay [1], 100 to 1000 nM on MAT2A and over 10000 nM in assay [2].

As to `Cc1ncccc1-n1c(=O)c2ncc(C)n2c2c(Br)c(C)c(Br)cc21` [Example 85, 7,9-dibromo-1,8-dimethyl-5-(2-methylpyridin-3-yl)imidazo[1,2-a]quinoxalin-4(5H)-one], the values for the IC50 (in assay [1]; on MAT2A; in assay [2]) were 1 to 100 nM, 100 to 1000 nM and over 10000 nM, respectively.

For `Cc1cc2c(cc1Br)n(-c1cccnc1C)c(=O)c1ncc(C)n12` [Example 84, 7-bromo-1,8-dimethyl-5-(2-methylpyridin-3-yl)imidazo[1,2-a]quinoxalin-4(5H)-one], the IC50 in assay [1] was 1 to 100 nM; on MAT2A, 100 to 1000 nM; in assay [2] it was over 10000 nM.

For `Cc1ccccc1-n1c(=O)c2nccn2c2ccc(C(F)F)cc21` [Example 22, 7-(difluoromethyl)-5-(o-tolyl)imidazo[1,2-a]quinoxalin-4(5H)-one], the IC50 in assay [1] was 1 to 100 nM; against MAT2A, 1 to 100 nM; in assay [2] it was over 10000 nM.

Regarding `COc1ncccc1-n1c(=O)c2nccn2c2cc(Cl)c(Br)cc21` [Example 107, 7-bromo-8-chloro-5-(2-methoxypyridin-3-yl)imidazo[1,2-a]quinoxalin-4(5H)-one], the IC50 in assay [1] is over 10000 nM; on MAT2A it was 1 to 100 nM; in assay [2], over 10000 nM.

As to `Cc1ccc2c(n1)n(-c1ccccc1C)c(=O)c1nccn12` [Example 36, 7-methyl-5-(o-tolyl)imidazo[1,2-a]pyrido[2,3-e]pyrazin-4(5H)-one], the results for the IC50 (in assay [1]; on MAT2A; in assay [2]) were 100 to 1000 nM, 100 to 1000 nM and over 10000 nM, respectively.

As to `Cc1ncccc1-n1c(=O)c2ncc(Cl)n2c2cc(Cl)c(Br)cc21` [Example 89, 7-bromo-1,8-dichloro-5-(2-methylpyridin-3-yl)imidazo[1,2-a]quinoxalin-4(5H)-one], the values for the IC50 (in assay [1]; against MAT2A; in assay [2]) were 100 to 1000 nM, 100 to 1000 nM and over 10000 nM, respectively.

For `Cc1c(F)cccc1-n1c(=O)c2nccn2c2ccc(OC(F)(F)F)cc21` [Example 15, 5-(3-fluoro-2-methylphenyl)-7-(trifluoromethoxy)imidazo[1,2-a]quinoxalin-4(5H)-one], the results for the IC50 (in assay [1]; at MAT2A; in assay [2]) were 100 to 1000 nM, 1000 to 10000 nM and over 10000 nM, respectively.

With `Cc1ccccc1-n1c(=O)c2nccn2c2ccc(Cl)nc21` [Example 35, 7-chloro-5-(o-tolyl)imidazo[1,2-a]pyrido[2,3-e]pyrazin-4(5H)-one], the IC50 in assay [1] was 100 to 1000 nM; against MAT2A, 100 to 1000 nM; in assay [2], over 10000 nM.

With `CNc1cc(Cl)cc2c1n1ccnc1c(=O)n2-c1cccnc1C` [Example 105, 7-chloro-9-(methylamino)-5-(2-methylpyridin-3-yl)imidazo[1,2-a]quinoxalin-4(5H)-one], the figures for the IC50 (in assay [1]; against MAT2A; in assay [2]) were 1 to 100 nM, 1 to 100 nM and over 10000 nM, respectively.

For `Cc1c(F)cccc1-n1c(=O)c2nccn2c2ccc(C3CC3)cc21` [Example 13, 7-cyclopropyl-5-(3-fluoro-2-methylphenyl)imidazo[1,2-a]quinoxalin-4(5H)-one], the figures for the IC50 (in assay [1]; at MAT2A; in assay [2]) were 100 to 1000 nM, 100 to 1000 nM and over 10000 nM, respectively.

For the compound `O=c1c2nccn2c2ccc(Cl)cc2n1-c1cccnc1Cl` [Example 54, 7-chloro-5-(2-chloropyridin-3-yl)imidazo[1,2-a]quinoxalin-4(5H)-one], the IC50 fell in the range of 1 to 100 nM in assay [1], 1 to 100 nM against MAT2A and 100 to 1000 nM in assay [2].

Take `COc1cc(C(F)(F)F)cc2c1n1ccnc1c(=O)n2-c1cccnc1C` [Example 113, 9-methoxy-5-(2-methylpyridin-3-yl)-7-(trifluoromethyl)imidazo[1,2-a]quinoxalin-4(5H)-one]: the results for the IC50 (in assay [1]; on MAT2A; in assay [2]) were 1 to 100 nM, 1 to 100 nM and over 10000 nM, respectively.

For the compound `Cc1ccccc1-n1c(=O)c2nccn2c2ccc(OC(F)(F)F)cc21` [Example 19, 5-(o-tolyl)-7-(trifluoromethoxy)imidazo[1,2-a]quinoxalin-4(5H)-one], the IC50 in assay [1] is 1000 to 10000 nM; against MAT2A it was 1000 to 10000 nM; in assay [2], over 10000 nM.

In the case of `Cc1ncccc1-n1c(=O)c2ncc(Br)n2c2ccc(C(F)(F)F)cc21` [Example 57, 1-bromo-5-(2-methylpyridin-3-yl)-7-(trifluoromethyl)imidazo[1,2-a]quinoxalin-4(5H)-one], the IC50 in assay [1] lay in the range of 1 to 100 nM; against MAT2A, 100 to 1000 nM; in assay [2], 100 to 1000 nM.

Turning to `O=c1c2nccn2c2cc(Cl)c(Br)cc2n1-c1cccc2[nH]ccc12` [Example 109, 7-bromo-8-chloro-5-(1H-indol-4-yl)imidazo[1,2-a]quinoxalin-4(5H)-one], the IC50 in assay [1] was 100 to 1000 nM; against MAT2A it was 1 to 100 nM; in assay [2], over 10000 nM.

For `Cc1ncccc1-n1c(=O)c2ncc(C)n2c2cc(Cl)c(Br)cc21` [Example 86, 7-bromo-8-chloro-1-methyl-5-(2-methylpyridin-3-yl)imidazo[1,2-a]quinoxalin-4(5H)-one], the IC50 in assay [1] is 100 to 1000 nM; against MAT2A, 100 to 1000 nM; in assay [2], over 10000 nM.

Consider `COc1ccc2c(c1)n(-c1ccccc1C)c(=O)c1nccn12` [Example 17, 7-methoxy-5-(o-tolyl)imidazo[1,2-a]quinoxalin-4(5H)-one], for which the IC50 was 100 to 1000 nM in assay [1], 100 to 1000 nM against MAT2A and over 10000 nM in assay [2].

`Cc1ccccc1-n1c(=O)c2nccn2c2ccc(C(F)(F)F)nc21` [Example 49, 5-(o-tolyl)-7-(trifluoromethyl)imidazo[1,2-a]pyrido[2,3-e]pyrazin-4(5H)-one]: the IC50 in assay [1] is 100 to 1000 nM; on MAT2A, 100 to 1000 nM; in assay [2], over 10000 nM.
